Measured values from patent US9546144B2, “Bifunctional compounds” (University of Pittsburgh—of the Commonwealth System of …, priority 2011, dated 2017).

Legend:
[1] = storage in 25% w/w solutions of 3 and NMP; assay type: physicochemical; conditions: 25% w/w 3 and NMP at −20° C.
Experimental: Because sulfoxide 3 is a solid, it would have to be mixed with an appropriate water-soluble cosolvent to act as a compound storage additive. NMP was chosen for exploring this potential application due to its thermal stability and low toxicity. […] The compound test set (FIG. 2) was stored in 25% w/w solutions of 3 and NMP for 6 weeks at −20° C.

[2] = test system: luc+ bone marrow chimeric C57BL/6 mice; experiment: migration of luc+ marrow cells to irradiated lungs of luc+ marrow chimeric mice; assay type: in vivo, mouse; conditions: in drinking water, after second thoracic irradiation dose
Experimental: FIG. 14. Pulmonary migration of luc+ marrow cells to irradiated lungs of luc+ chimeric mice. Groups of 30 C57BL/6Tac mice were given 10 Gy TBI then 24 hr. later 1×10^7 luc+ bone marrow cells I.V. At day 63, subgroups received 18 Gy thoracic irradiation. […] Mice were serially imaged for luciferase, as described in the methods.
MMS350 was tested in two mouse models of fibrosis in the C57BL/6J model. In the first system (chimeric mice) C57BL/6 mice were irradiated to a total body dose of 10 Gy, which is known to be lethal for 100% of animals in the absence of bone marrow transplantation. These mice were then transplanted intravenously with luciferase positive C57BL/6J mouse bone marrow. These mice are valuable for measuring the site of hematopoiesis from donor origin marrow since the animals can be imaged for mobilization in a specific imaging system, which detects the luciferase signal. In this assay system, animals are injected with luciferin (the substrate for the enzyme luciferase) bone marrow cells, which contain luciferase (those from the donor marrow strain) metabolize luciferin and produce a […] which is detected in a camera system over the immobilized mice. These same animals can be imaged serially over several weeks-months and followed for migration of luciferase positive cells from bone marrow sites into irradiated sites. […]

Compound: CC1(C[S+]([O-])CC2(C)COC2)COC1 [compound 3, 3,3′-Sulfinylbis(methylene)bis(3-methyloxetane)]
- behaviour of 3 in the storage solution [1]: partly precipitated from the solution
- migration of bone marrow cells into the lungs [2]: significantly reduces migration of bone marrow cells into the lungs
